Experiment [1] relates to human primary tumor cells. Description: Inhibition of primary tumor cell cultures vs constitutively activated form of NK1 receptor (Example 7; tumor type per table line). In kind it is cell-based.
Description: (§1) Cell cultures. To obtain tumor cells from human primary tumors we used the method described in De Bari et al. (De Bari et al. 2001). Briefly, small pieces of the tumors were digested into a hyaluronidase solution (Sigma-Aldrich, USA) at a concentration of 1 mg/ml during 15 minutes at 37°C, and then they were treated with 6 mg/ml of collagenase type IV (Invitrogen) during 2 hours at 37°C. Consecutively, cells were washed, and resuspended in the DMEM culture medium with high concentration of glucose (Dulbecco's Modified Eagle's Medium, Invitrogen) supplemented with 1% of antibiotics-antimycotics (Invitrogen) and with 1% of sodium pyruvate (Invitrogen), and the cells were seeded in culture slides at a concentration of 10.000 cells per square centimeter. When cells reached confluence, the adherent cells were separated using sterile trypsin at 0,5% (Invitrogen) and they were used among passages 3 and 9. For the assays shown next, tumor cells were seeded on slides at a concentration of 25.000 cells per well. A total of 6 wells containing the tumor cells were used as survival control. […] All the cultures were kept during 48 hours and later on recollected for their analysis.
It was determined the increase or not in proliferation with the exposition to substance P (NK1 receptor agonist), so that for the cell cultures which grew independently from the exposition to substance P, it was considered that they have constitutively activated forms of such receptor, because a mitogenic signal independently from the presence of the agonist was transmitted. It was checked that all tumor cells presented integrity in the MAP Kinases and PI3 Kinases pathways, as wel as in the K-ras gene, and the protein derived from it.
Experiment [2] concerns Melanoma. Description: Inhibition of primary tumor cell cultures (48 hours) vs NK1 receptor immunostaining (Example 1). In kind it is cell-based. To be noted: Homo sapiens, 1 micromolar, read-out: Percentage of inhibition of cell cultures.
Description: as §1
(§2) Immunohistochemistry techniques. The presence of NK1 receptors was also analyzed using immunohistochemistry techniques. Briefly, a sample of each of the cultures of the cell lines used in the present invention, was centrifuged (5 minutes at 1.500 rpm) and the pellet obtained was dehydrated using increasing concentrations of ethanol and, finally, xylol. Then, said dehydrated samples were embedded in paraffin, creating a block of cells. Such paraffin blocks were cut with a microtome at 5 microns thickness, and were placed on microscope slides adequate to perform immunohistochemistry techniques. Consecutively, they were de-paraffinized by immersing them in xylol, to be finally hydrated using a solution containing decreasing concentrations of ethanol, and finally submerged them into water. […] After this, the samples were left to cool down at room temperature for 10 minutes. The endogenous peroxidase activity was blocked with 3% peroxide of hydrogen for 30 minutes at room temperature. After washing the samples with 0.05 M of Tris buffer, they were incubated with 10% non-immune pork serum at for 30 minutes at room temperature. To analyze the expression of NK1 receptors, the cellular samples were incubated in the presence of anti-NK1 antibodies (S8305, Sigma-Aldrich) diluted 1:1000, overnight at 4°C. Afterwards, the samples were washed in Tris buffer 0.05 M at room temperature. The next step was the addition of Envision System-HRP (Dako) reagents for 30 minutes at room temperature. Then, the samples were washed again in Tris buffer 0.05 M and the immunoreactivity was visualized through light microscopy with a chromogenic solution containing 3,3'-Diaminobenzidine (DAB+; Dako, USA). To differentiate the cell nuclei, they were slightly stained with hematoxylin. As negative control, it was used samples not incubated with the primary antibody anti-NK1, which was replaced by non-immune serum. All the samples were evaluated.
(§3) To value the immunostaining in each of the cases six cuts were performed to be analyzed by the immunohistochemistry technique. In each of the six cuts, it was counted cells in 20 fields (magnification 400x) using an Olympus microscope (model CX31). In each field it was counted the total number of cells and the number of cells presenting immunostaining, calculating afterwards the percentage of cells which presented immunostaining.
In experiment [3] the test system is Non Hodgkin Lymphoma T. The description is as above. In kind it is cell-based. The note with it: Homo sapiens, 1 micromolar, read-out: Percentage of inhibition of cell cultures.
Description: as §1, §2, §3
Experiment [4] has as its system Colon carcinoma (Adenocarcinoma). Description: Inhibition of primary tumor cell cultures vs Kras mutation (Example 2). In kind it is cell-based, human. To be noted: 100 micromolar; for inhibition at 100 µM: Homo sapiens, read-out: Percentage of inhibition of cell cultures; for Percentage of inhibition of cell cultures: Colon carcinoma (Adenocarcinoma).
Description: as §1
(§4) In each case the presence or not of mutations in K-ras gene was determined.
(§5) To determine the existence of mutations in the K-ras gene DNA from cancer tumor cells was extracted from samples obtained from the different cancer tumor cells, using DNA extraction kits from Takara (Madison, WI, US) or Ambion (Huntingdon, Cambridgeshire, United Kingdom), following the manufacturer's instructions, and as it has been previously published (Di Fiore F, et al. 2007). Consecutively it was analyzed by sequencing the exon 2 of the KRAS gene, , by means of PCR amplification from previously extracted cancer tumor DNA, using the following sense primer (SEQ ID NO. 15): 5'-[sequence]-3' and anti-sense primer (SEQ ID NO. 16): 5'-[sequence]-3'. After the purification using the Qiagen extraction kit, the PCR products were sequenced using the Big Dye Terminator Kit V3.1 (Applied Biosystems, Foster City, CA, U.S.) and an ABI Prism 377 or 3100 DNA sequencer (Applied Biosystems). The presence of a heterozygous mutation in the KRAS gene in cancer tumor cells of the cultures was defined as the appearance of a mutant peak of a height of at least a third of the wild type. All the sequence analysis were executed at least twice in two independent PCR.
(§6) The antibody against NK1 receptor (Table 16) was used at 1/50 concentration. The percentages of inhibition are expressed in percentage of variation in relation to control ± standard deviation.
The test system of experiment [5] is Urinary bladder carcinoma. Description: Inhibition of primary tumor cell cultures (48 hours) vs NK1 receptor immunostaining (Example 1). Type of experiment: cell-based. The note with it: Homo sapiens, 1 micromolar, read-out: Percentage of inhibition of cell cultures.
Description: as §1, §2, §3
The subject of experiment [6] is Carcinoma of the uterine cervix (Squamous cell carcinoma). In words: Inhibition of primary tumor cell cultures vs Kras mutation (Example 2). In kind it is cell-based, human. The note with it: 100 micromolar; for inhibition at 100 µM: Homo sapiens, read-out: Percentage of inhibition of cell cultures; for Percentage of inhibition of cell cultures: Carcinoma of the uterine cervix (Squamous cell carcinoma).
Description: as §1, §4, §5, §6

The subject of experiment [7] is Renal cell carcinoma (clear cell renal cell carcinoma). The experiment is described as above. In kind it is cell-based, human. To be noted: 100 micromolar; for inhibition at 100 µM: Homo sapiens, read-out: Percentage of inhibition of cell cultures; for Percentage of inhibition of cell cultures: Renal cell carcinoma (clear cell renal cell carcinoma).
Description: as §1, §4, §5, §6
Experiment [8] deals with Leukemia T. In words: Inhibition of primary tumor cell cultures (48 hours) vs NK1 receptor immunostaining (Example 1). Type of experiment: cell-based. To be noted: Homo sapiens, 1 micromolar, read-out: Percentage of inhibition of cell cultures.
Description: as §1, §2, §3
[9] abbreviates: NK1 receptor immunostaining Group 1 (less than 20% of the cells).
Where [10] appears, read: NK1 receptor immunostaining Group 2 (20-80% of the cells).
Setting [11] is: NK1 receptor immunostaining Group 3 (more than 80% of the cells).
Setting [12] is: NK1 receptor immunostaining Intensity grade 1.
[13] abbreviates: NK1 receptor immunostaining Intensity grade 2.
Setting [14] is: NK1 receptor immunostaining Intensity grade 3.
Where [15] appears, read: Cases with Kras non-mutated (wild type).

Each structure is given as a SMILES string. Read-outs that look alike come from different tables or passages of the source.

From patent publication EP2966448B1, “METHOD FOR THE PREDICTION OR PROGNOSIS OF THE RESPONSE OF A HUMAN SUBJECT SUFFERING FROM CANCER TO TREATMENT WITH AN ANTAGONIST OF THE NK1 RECEPTOR” (priority 2013, dated 2014) come the findings set out here.

In general, inhibition refers to the percentage by which the read-out fell short of the control.

In the case of `C[C@@H](O[C@H]1OCCN(Cc2n[nH]c(=O)[nH]2)[C@H]1c1ccc(F)cc1)c1cc(C(F)(F)F)cc(C(F)(F)F)c1` [Aprepitant], the “Percentage of inhibition of cell cultures” value stood at 74±6% in experiment [1] (Non Hodgkin Lymphoma B (diffuse B cell lymphoma), Group I (constitutively activated form of NK1 receptor)); 75±6% in experiment [1] (Non Hodgkin Lymphoma T (diffuse T cell lymphoma), Group I (constitutively activated form of NK1 receptor)); 96±4% in experiment [1] (Non Hodgkin Lymphoma T (diffuse T cell lymphoma), Group II (normal form of the receptor)). The “inhibition of tumor cell growth” value in experiment [1] (group with little proliferating response when exposed to substance P (constitutively activated form of NK1 receptor), compared) was “higher inhibition”.

Consider `CC(=O)N1CCN([C@H]2CCN(C(=O)N(C)[C@H](C)c3cc(C(F)(F)F)cc(C(F)(F)F)c3)[C@@H](c3ccc(F)cc3C)C2)CC1` [Casopitant], for which the inhibition at 1 µM amounted to 15 ± 3% in experiment [2] (setting [9]); 46 ± 4% in experiment [2] (setting [10]); 93 ± 5% in experiment [2] (setting [11]); 34 ± 3% in experiment [2] (setting [12]); 52 ± 4% in experiment [2] (setting [13]); 93 ± 3% in experiment [2] (setting [14]). Further, the inhibition at 1 µM in experiment [3] (setting [9]) amounted to 14 ± 2%; in experiment [3] (setting [10]), 46 ± 6%; in experiment [3] (setting [11]), 94 ± 5%; in experiment [3] (setting [12]), 36 ± 5%; in experiment [3] (setting [13]) it was 54 ± 5%; in experiment [3] (setting [14]) it was 92 ± 2%. The inhibition at 1 µM in experiment [5] (setting [9]) stood at 17 ± 3%; in experiment [5] (setting [10]), 45 ± 3%; in experiment [5] (setting [11]) it was 94 ± 6%; in experiment [5] (setting [12]) it was 34 ± 4%; in experiment [5] (setting [13]), 56 ± 4%; in experiment [5] (setting [14]) it was 93 ± 4%. The inhibition at 1 µM came out at 16 ± 2% in experiment [8] (setting [9]); 47 ± 5% in experiment [8] (setting [10]); 95 ± 3% in experiment [8] (setting [11]); 34 ± 2% in experiment [8] (setting [12]); 56 ± 4% in experiment [8] (setting [13]); 93 ± 3% in experiment [8] (setting [14]). Moreover, the inhibition at 100 µM in experiment [4] (Cases with Kras mutated) came out at 32 ± 4%; in experiment [4] (setting [15]) it was 94 ± 6%; in experiment [6] (Cases with Kras mutated), 27 ± 3%; in experiment [6] (setting [15]), 93 ± 3%; in experiment [7] (Cases with Kras mutated), 27 ± 4%; in experiment [7] (setting [15]), 94 ± 3%.

As for `Cc1cc(F)ccc1[C@H]1CNCCN1C(=O)N(C)[C@H](C)c1cc(C(F)(F)F)cc(C(F)(F)F)c1` [Vestipitant], the inhibition at 1 µM in experiment [2] (setting [9]) stood at 16 ± 3%; in experiment [2] (setting [10]), 45 ± 4%; in experiment [2] (setting [11]), 92 ± 6%; in experiment [2] (setting [12]) it was 15 ± 3%; in experiment [2] (setting [13]), 48 ± 4%; in experiment [2] (setting [14]), 92 ± 4%. Also, the inhibition at 1 µM came to 13 ± 4% in experiment [3] (setting [9]); 46 ± 4% in experiment [3] (setting [10]); 93 ± 6% in experiment [3] (setting [11]); 17 ± 2% in experiment [3] (setting [12]); 48 ± 4% in experiment [3] (setting [13]); 93 ± 5% in experiment [3] (setting [14]). Besides, the inhibition at 1 µM in experiment [5] (setting [9]) stood at 15 ± 3%; in experiment [5] (setting [10]), 47 ± 4%; in experiment [5] (setting [11]) it was 92 ± 5%; in experiment [5] (setting [12]), 17 ± 3%; in experiment [5] (setting [13]), 46 ± 3%; in experiment [5] (setting [14]), 92 ± 3%. The inhibition at 1 µM was determined as 17 ± 4% in experiment [8] (setting [9]); 46 ± 3% in experiment [8] (setting [10]); 94 ± 4% in experiment [8] (setting [11]); 15 ± 3% in experiment [8] (setting [12]); 48 ± 4% in experiment [8] (setting [13]); 94 ± 5% in experiment [8] (setting [14]). In addition, the “Percentage of inhibition of cell cultures” value in experiment [4] (Cases with Kras mutated) is 33±5 percentage; in experiment [4] (setting [15]), 96±5 percentage; in experiment [6] (Cases with Kras mutated) it was 25±5 percentage; in experiment [6] (setting [15]) it was 94±3 percentage; in experiment [7] (Cases with Kras mutated), 25±5 percentage; in experiment [7] (setting [15]), 95±6 percentage.
